In ChEMBL document CHEMBL3390836, “Mannich- and LedererManasse-based analogues of the natural product S-(+)-curcuphenol as cancer proliferation and migration inhibitors” (Medchemcomm, 2012):

Tests used:
Type in all cases: functional
[1] = Cytotoxicity against human OVCAR4 cells after 48 hrs by SRB assay; details: OVCAR-4, 48 h
[2] = Cytotoxicity against human NCI-ADR-RES cells after 48 hrs by SRB assay
ACHN = test: Cytotoxicity against human ACHN cells assessed as cell growth at 10^-8 M after 48 hrs by SRB assay relative to control; details: read-out: Activity
MOLT-4 = test: Cytotoxicity against human MOLT4 cells assessed as cell growth at 10^-6 M after 48 hrs by SRB assay relative to control; details: MOLT-4, 48 h, read-out: Activity
COLO 205 [3] = test: Cytotoxicity against human COLO205 cells assessed as cell growth at 10^-4 M after 48 hrs by SRB assay relative to control; details: COLO 205, 48 h, read-out: Activity
[4] = Cytotoxicity against human UO31 cells assessed as cell growth at 10^-6 M after 48 hrs by SRB assay relative to control; details: UO-31, 48 h, read-out: Activity
[5] = Cytotoxicity against human HCT116 cells assessed as cell growth at 10^-6 M after 48 hrs by SRB assay relative to control; details: HCT-116, 48 h, read-out: Activity
MDA-MB-468 [6] = test: Cytotoxicity against human MDA-MB-468 cells assessed as cell growth at 10^-6 M after 48 hrs by SRB assay relative to control; details: MDA-MB-468, 48 h, read-out: Activity
MDA-MB-435 [7] = test: Cytotoxicity against human MDA-MB-435 cells after 48 hrs by SRB assay; details: MDA-MB-435, 48 h; for CC50: read-out: LC50 (the source's name)
T47D [8] = test: Cytotoxicity against human T47D cells assessed as cell growth at 10^-6 M after 48 hrs by SRB assay relative to control; details: read-out: Activity
[9] = Cytotoxicity against human HCT15 cells assessed as cell growth at 10^-6 M after 48 hrs by SRB assay relative to control; details: HCT-15, 48 h, read-out: Activity
SNB-75 [10] = test: Cytotoxicity against human SNB75 cells assessed as cell growth at 10^-8 M after 48 hrs by SRB assay relative to control; details: SNB-75, 48 h, read-out: Activity
CAKI-1 = test: Cytotoxicity against human Caki1 cells assessed as cell growth at 10^-7 M after 48 hrs by SRB assay relative to control; details: CAKI-1, 48 h, read-out: Activity
K562 [11] = test: Cytotoxicity against human K562 cells assessed as cell growth at 10^-8 M after 48 hrs by SRB assay relative to control; details: K562, 48 h, read-out: Activity
MDA-MB-435 [12] = test: Cytotoxicity against human MDA-MB-435 cells assessed as cell growth at 10^-8 M after 48 hrs by SRB assay relative to control; details: MDA-MB-435, 48 h, read-out: Activity
NCI-H226 [13] = test: Cytotoxicity against human NCI-H226 cells assessed as cell growth at 10^-7 M after 48 hrs by SRB assay relative to control; details: NCI-H226, 48 h, read-out: Activity
LOX IMVI [14] = test: Cytotoxicity against human LOXIMVI cells after 48 hrs by SRB assay
LOX IMVI [15] = test: Cytotoxicity against human LOXIMVI cells assessed as cell growth at 10^-6 M after 48 hrs by SRB assay relative to control; details: read-out: Activity
T47D [16] = test: Cytotoxicity against human T47D cells assessed as cell growth at 10^-4 M after 48 hrs by SRB assay relative to control; details: read-out: Activity
RXF 393 = test: Cytotoxicity against human RXF393 cells after 48 hrs by SRB assay; details: RXF 393, 48 h
K562 [17] = test: Cytotoxicity against human K562 cells assessed as cell growth at 10^-6 M after 48 hrs by SRB assay relative to control; details: K562, 48 h, read-out: Activity
[18] = Cytotoxicity against human UACC62 cells assessed as cell growth at 10^-8 M after 48 hrs by SRB assay relative to control; details: UACC-62, 48 h, read-out: Activity
[19] = Cytotoxicity against human SKOV3 cells assessed as cell growth at 10^-4 M after 48 hrs by SRB assay relative to control; details: SK-OV-3, 48 h, read-out: Activity
[20] = Cytotoxicity against human NCI-ADR-RES cells assessed as cell growth at 10^-6 M after 48 hrs by SRB assay relative to control; details: read-out: Activity
Malme-3M = test: Cytotoxicity against human MALME-3M cells assessed as cell growth at 10^-7 M after 48 hrs by SRB assay relative to control; details: read-out: Activity
TK-10 = test: Cytotoxicity against human TK10 cells assessed as cell growth at 10^-8 M after 48 hrs by SRB assay relative to control; details: TK-10, 48 h, read-out: Activity
NCI-H23 = test: Cytotoxicity against human NCI-H23 cells assessed as cell growth at 10^-6 M after 48 hrs by SRB assay relative to control; details: NCI-H23, 48 h, read-out: Activity
NCI-H226 [21] = test: Cytotoxicity against human NCI-H226 cells assessed as cell growth at 10^-6 M after 48 hrs by SRB assay relative to control; details: NCI-H226, 48 h, read-out: Activity
[22] = Cytotoxicity against human UO31 cells assessed as cell growth at 10^-8 M after 48 hrs by SRB assay relative to control; details: UO-31, 48 h, read-out: Activity
NCI-H322M = test: Cytotoxicity against human NCI-H322M cells assessed as cell growth at 10^-7 M after 48 hrs by SRB assay relative to control; details: read-out: Activity
COLO 205 [23] = test: Cytotoxicity against human COLO205 cells assessed as cell growth at 10^-6 M after 48 hrs by SRB assay relative to control; details: COLO 205, 48 h, read-out: Activity
SNB-75 [24] = test: Cytotoxicity against human SNB75 cells assessed as cell growth at 10^-6 M after 48 hrs by SRB assay relative to control; details: SNB-75, 48 h, read-out: Activity
KM12 = test: Cytotoxicity against human KM12 cells after 48 hrs by SRB assay; details: KM12, 48 h; for CC50: read-out: LC50 (the source's name)
MDA-MB-468 [25] = test: Cytotoxicity against human MDA-MB-468 cells assessed as cell growth at 10^-8 M after 48 hrs by SRB assay relative to control; details: MDA-MB-468, 48 h, read-out: Activity
SF-295 = test: Cytotoxicity against human SF295 cells assessed as cell growth at 10^-4 M after 48 hrs by SRB assay relative to control; details: SF-295, 48 h, read-out: Activity
[26] = Cytotoxicity against human OVCAR3 cells assessed as cell growth at 10^-7 M after 48 hrs by SRB assay relative to control; details: OVCAR-3, 48 h, read-out: Activity
SN12C = test: Cytotoxicity against human SN12C cells after 48 hrs by SRB assay

## CC(C)=CCC[C@H](C)c1ccc(C)c(CNCC2CCNCC2)c1O
[1]
  GI50: 18.2 µM
  LC50: > 25 µM
  TGI: > 25 µM
[2]
  GI50: 19.8 µM
  LC50 (lethal concentration, 50% cell kill): > 25 µM
  TGI: > 25 µM
ACHN
  growth at 0.01 µM: 96%
MOLT-4
  growth at 1 µM: 99%
COLO 205 [3]
  growth at 100 µM: -93%
[4]
  growth at 1 µM: 84%
[5]
  growth at 1 µM: 105%
MDA-MB-468 [6]
  growth at 1 µM: 90%
MDA-MB-435 [7]
  GI50: 3.71 µM
  TGI: 8.44 µM
  CC50: 19.2 µM
T47D [8]
  growth at 1 µM: 84%
[9]
  growth at 1 µM: 98%
SNB-75 [10]
  growth at 0.01 µM: 90%
CAKI-1
  growth at 0.1 µM: 94%
K562 [11]
  growth at 0.01 µM: 103%
MDA-MB-435 [12]
  growth at 0.01 µM: 100%
NCI-H226 [13]
  growth at 0.1 µM: 79%
LOX IMVI [14]
  GI50: 3.85 µM
  LC50 (concentration killing 50% of cells): 16.5 µM
  TGI: 7.96 µM
LOX IMVI [15]
  growth at 1 µM: 98%
T47D [16]
  growth at 100 µM: -73%
RXF 393
  GI50: 3.7 µM
  LC50 (concentration killing 50% of cells): > 25 µM
  TGI: 13.4 µM
K562 [17]
  growth at 1 µM: 91%
[18]
  growth at 0.01 µM: 97%
[19]
  growth at 100 µM: 8%
[20]
  growth at 1 µM: 95%
Malme-3M
  growth at 0.1 µM: 89%
TK-10
  growth at 0.01 µM: 92%
NCI-H23
  growth at 1 µM: 94%
NCI-H226 [21]
  growth at 1 µM: 86%
[22]
  growth at 0.01 µM: 88%
NCI-H322M
  growth at 0.1 µM: 94%
COLO 205 [23]
  growth at 1 µM: 107%
SNB-75 [24]
  growth at 1 µM: 89%
KM12
  GI50: 4.12 µM
  TGI: 8.38 µM
  CC50: 17.1 µM
MDA-MB-468 [25]
  growth at 0.01 µM: 95%
SF-295
  growth at 100 µM: -73%
[26]
  growth at 0.1 µM: 104%
SN12C
  GI50: 12.9 µM
  LC50: > 25 µM
  TGI: > 25 µM

## CC(C)=CCC[C@H](C)c1ccc(C)c2c1OCN(CC1CCNCC1)C2
[1]
  GI50: 16 µM
  LC50: 58.9 µM
  TGI: 30.7 µM
[2]
  GI50: 16.8 µM
  LC50 (lethal concentration, 50% cell kill): 71.8 µM
  TGI: 34.8 µM
ACHN
  growth at 0.01 µM: 100%
MOLT-4
  growth at 1 µM: 100%
COLO 205 [3]
  growth at 100 µM: -89%
[4]
  growth at 1 µM: 91%
[5]
  growth at 1 µM: 104%
MDA-MB-468 [6]
  growth at 1 µM: 99%
MDA-MB-435 [7]
  GI50: 6.48 µM
  TGI: 20.9 µM
  CC50: 53.4 µM
T47D [8]
  growth at 1 µM: 91%
[9]
  growth at 1 µM: 95%
SNB-75 [10]
  growth at 0.01 µM: 92%
CAKI-1
  growth at 0.1 µM: 108%
K562 [11]
  growth at 0.01 µM: 97%
MDA-MB-435 [12]
  growth at 0.01 µM: 100%
NCI-H226 [13]
  growth at 0.1 µM: 98%
LOX IMVI [14]
  GI50: 5.87 µM
  LC50 (concentration killing 50% of cells): 54.6 µM
  TGI: 20.2 µM
LOX IMVI [15]
  growth at 1 µM: 99%
T47D [16]
  growth at 100 µM: -70%
RXF 393
  GI50: 9.2 µM
  LC50 (concentration killing 50% of cells): 88.3 µM
  TGI: 21.7 µM
K562 [17]
  growth at 1 µM: 93%
[18]
  growth at 0.01 µM: 95%
[19]
  growth at 100 µM: -94%
[20]
  growth at 1 µM: 102%
Malme-3M
  growth at 0.1 µM: 94%
TK-10
  growth at 0.01 µM: 118%
NCI-H23
  growth at 1 µM: 105%
NCI-H226 [21]
  growth at 1 µM: 101%
[22]
  growth at 0.01 µM: 95%
NCI-H322M
  growth at 0.1 µM: 99%
COLO 205 [23]
  growth at 1 µM: 101%
SNB-75 [24]
  growth at 1 µM: 85%
KM12
  GI50: 12.3 µM
  TGI: 26 µM
  CC50: 55 µM
MDA-MB-468 [25]
  growth at 0.01 µM: 94%
SF-295
  growth at 100 µM: -67%
[26]
  growth at 0.1 µM: 105%
SN12C
  GI50: 14.2 µM
  LC50: 58.7 µM
  TGI: 28.9 µM
